In patent US9695155B2, “Herbicidal substituted pyrimidinyloxy benzene compounds” (E. I. DU PONT DE NEMOURS AND COMPANY, priority 2013, dated 2017):

How the values were obtained:
barnyardgrass [1] = assay: Test A preemergence; type: in vivo, Echinochloa crus-galli; details: for Barnyardgrass plant response rating (0 to 100 scale, 0 is no effect, 100 is complete control): 125 g ai/ha; for Barnyardgrass plant response rating: 500 g ai/ha, 0 to 100 scale where 0 is no effect and 100 is complete control
Summary of the method: (§1)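 Compounds in non-phytotoxic solvent with surfactant applied as soil spray preemergence, or postemergence to plants 2-10 cm at one- to two-leaf stage, in loam/sand. After approximately 10 days in greenhouse, injury rated visually versus untreated controls, 0 (no effect) to 100 (complete control).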

large (Lg) crabgrass [2] = assay: Test A preemergence; type: in vivo, Digitaria sanguinalis; details: for Crabgrass, Large plant response rating (0 to 100 scale): 125 g ai/ha; for Crabgrass, Large plant response rating: 500 g ai/ha, 0 to 100 scale where 0 is no effect and 100 is complete control
Summary of the method: as §1

giant foxtail [3] = assay: Test A preemergence; type: in vivo, Setaria faberii; details: for Foxtail, Giant plant response rating (0 to 100 scale): 125 g ai/ha; for Foxtail, Giant plant response rating: 500 g ai/ha, 0 to 100 scale where 0 is no effect and 100 is complete control
Summary of the method: as §1

morningglory [4] = assay: Test A preemergence; type: in vivo, Ipomoea spp.; details: for Morningglory plant response rating (0 to 100 scale): 125 g ai/ha; for Morningglory plant response rating: 500 g ai/ha, 0 to 100 scale where 0 is no effect and 100 is complete control
Summary of the method: as §1

pigweed [5] = assay: Test A preemergence; type: in vivo, Amaranthus retroflexus; details: for Pigweed plant response rating (0 to 100 scale): 125 g ai/ha; for Pigweed plant response rating: 500 g ai/ha, 0 to 100 scale where 0 is no effect and 100 is complete control
Summary of the method: as §1

velvetleaf [6] = assay: Test A preemergence; type: in vivo, Abutilon theophrasti; details: for Velvetleaf plant response rating (0 to 100 scale): 125 g ai/ha; for Velvetleaf plant response rating: 500 g ai/ha, 0 to 100 scale where 0 is no effect and 100 is complete control
Summary of the method: as §1

wheat [7] = assay: Test A preemergence; type: in vivo, Triticum aestivum; details: for Wheat plant response rating (0 to 100 scale): 125 g ai/ha; for Wheat plant response rating: 500 g ai/ha, 0 to 100 scale where 0 is no effect and 100 is complete control
Summary of the method: as §1

corn [8] = assay: Test A preemergence; type: in vivo, Zea mays; details: for Corn plant response rating (0 to 100 scale): 125 g ai/ha; for Corn plant response rating: 500 g ai/ha, 0 to 100 scale where 0 is no effect and 100 is complete control
Summary of the method: as §1

barnyardgrass [9] = assay: Test A postemergence; type: in vivo, Echinochloa crus-galli
Summary of the method: as §1

large (Lg) crabgrass [10] = assay: Test A postemergence; type: in vivo, Digitaria sanguinalis
Summary of the method: as §1

giant foxtail [11] = assay: Test A postemergence; type: in vivo, Setaria faberii
Summary of the method: as §1

morningglory [12] = assay: Test A postemergence; type: in vivo, Ipomoea spp.
Summary of the method: as §1

pigweed [13] = assay: Test A postemergence; type: in vivo, Amaranthus retroflexus
Summary of the method: as §1

velvetleaf [14] = assay: Test A postemergence; type: in vivo, Abutilon theophrasti
Summary of the method: as §1

wheat [15] = assay: Test A postemergence; type: in vivo, Triticum aestivum
Summary of the method: as §1

corn [16] = assay: Test A postemergence; type: in vivo, Zea mays
Summary of the method: as §1

rice = assay: Test B flooded paddy test; type: in vivo, Oryza sativa; details: Flood, 250 g ai/ha; 0 to 100 scale where 0 is no effect and 100 is complete control
Summary of the method: (§2)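 Seedlings are raised to two leaves, flooded to a depth of 3 cm and dosed by adding the compound to the floodwater. Water level is kept constant, and plants are scored visually versus controls 13–15 days later (0 = no effect, 100 = complete control).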

sedge, umbrella = assay: Test B flooded paddy test; type: in vivo, Cyperus difformis; details: Flood, 250 g ai/ha; 0 to 100 scale where 0 is no effect and 100 is complete control
Summary of the method: as §2

Heteranthera limosa = assay: Test B flooded paddy test; type: in vivo; details: Flood, 250 g ai/ha; 0 to 100 scale where 0 is no effect and 100 is complete control
Summary of the method: as §2

barnyardgrass [17] = assay: Test B flooded paddy test; type: in vivo, Echinochloa crus-galli; details: Flood, 250 g ai/ha; 0 to 100 scale where 0 is no effect and 100 is complete control
Summary of the method: as §2

[18] = 125 g ai/ha, 0 to 100 scale where 0 is no effect and 100 is complete control
[19] = 500 g ai/ha, 0 to 100 scale where 0 is no effect and 100 is complete control
[20] = 125 g ai/ha, 0 to 100 scale, 0 no effect, 100 complete control

SMILES	Barnyardgrass plant response rating (0 to 100 scale, 0 is no effect, 100 is complete control) (barnyardgrass [1])	Barnyardgrass plant response rating (barnyardgrass [1])	Crabgrass, Large plant response rating (0 to 100 scale) (large (Lg) crabgrass [2])	Crabgrass, Large plant response rating (large (Lg) crabgrass [2])	Foxtail, Giant plant response rating (0 to 100 scale) (giant foxtail [3])	Foxtail, Giant plant response rating (giant foxtail [3])	Morningglory plant response rating (0 to 100 scale) (morningglory [4])	Morningglory plant response rating (morningglory [4])	Pigweed plant response rating (0 to 100 scale) (pigweed [5])	Pigweed plant response rating (pigweed [5])	Velvetleaf plant response rating (0 to 100 scale) (velvetleaf [6])	Velvetleaf plant response rating (velvetleaf [6])	Wheat plant response rating (0 to 100 scale) (wheat [7])	Wheat plant response rating (wheat [7])	Corn plant response rating (0 to 100 scale) (corn [8])	Corn plant response rating (corn [8])	Plant response rating, Barnyardgrass (barnyardgrass [9]; [19])	Plant response rating, Crabgrass, Large (large (Lg) crabgrass [10]; [19])	Plant response rating, Foxtail, Giant (giant foxtail [11]; [19])	Plant response rating, Morningglory (morningglory [12]; [19])	further results
N#Cc1cccc(Oc2ncc(Cl)cn2)c1-n1cccn1 [Compound 208]	0	70	20	100	20	90	0	30	30	100	0	50	0	20	0	0	0	20	20	80	Barnyardgrass plant response rating (barnyardgrass [9]; [18]): 0; Crabgrass, Large plant response rating (large (Lg) crabgrass [10]; [18]): 0; Foxtail, Giant plant response rating (giant foxtail [11]; [18]): 0; Morningglory plant response rating (morningglory [12]; [18]): 20; Pigweed plant response rating (pigweed [13]; [18]): 30; Plant response rating, Pigweed (pigweed [13]; [19]): 100; Velvetleaf plant response rating (velvetleaf [14]; [18]): 40; Plant response rating, Velvetleaf (velvetleaf [14]; [19]): 60; Wheat plant response rating (wheat [15]; [18]): 0; Plant response rating, Wheat (wheat [15]; [19]): 0; Corn plant response rating (corn [16]; [18]): 0; Plant response rating, Corn (corn [16]; [19]): 20; Plant response rating, Rice (rice): 0; Plant response rating, Sedge, Umbrella (sedge, umbrella): 0; Plant response rating, Ducksalad (Heteranthera limosa): 0; Plant response rating, Barnyardgrass (barnyardgrass [17]): 0
CC1(C)OB(c2cnn(-c3c(C#N)cccc3Oc3ncc(Cl)cn3)c2)OC1(C)C [Compound 285]	0	30	80	100	20	100	0	40	80	100	10	40	0	20	0	20	30	40	60	40	Plant response rating, Barnyardgrass (barnyardgrass [9]; [20]): 0; Plant response rating, Crabgrass, Large (large (Lg) crabgrass [10]; [20]): 10; Plant response rating, Foxtail, Giant (giant foxtail [11]; [20]): 0; Plant response rating, Morningglory (morningglory [12]; [20]): 30; Plant response rating, Pigweed (pigweed [13]; [20]): 80; Plant response rating, Pigweed (pigweed [13]; [19]): 100; Plant response rating, Velvetleaf (velvetleaf [14]; [20]): 30; Plant response rating, Velvetleaf (velvetleaf [14]; [19]): 80; Plant response rating, Wheat (wheat [15]; [20]): 0; Plant response rating, Wheat (wheat [15]; [19]): 20; Plant response rating, Corn (corn [16]; [20]): 0; Plant response rating, Corn (corn [16]; [19]): 30; Plant response rating, Rice (rice): 0; Plant response rating, Sedge, Umbrella (sedge, umbrella): 0; Plant response rating, Ducksalad (Heteranthera limosa): 0; Plant response rating, Barnyardgrass (barnyardgrass [17]): 0
